Paper PMC5942814 (PLoS ONE, 2018)
“And” between values parts separate entries of the source, which are not always exact repeats. Identical values can stand only once. “Also recorded” adds a separate entry of the source.

Key:
[1] = system: cardiovascular calcification in adenine-induced uremic rats; test: Inhibition of calcification in a rat model of uremia (adenine + α-calcidol); format: in vivo, Wistar rats
Description: (§1) Following sampling, blood was collected into K3EDTA anticoagulant tubes, centrifuged at 3,500 rpm for 10 min at 4 °C and stored at -80°C pending quantification via UPLC®-MS using the method described by Tur et al.
All rats were treated daily with adenine (600 mg/kg, suspended in 1% carboxymethyl cellulose, administered orally) for the first 10 days to induce uremia and α-calcidol (300 ng/kg in olive oil, administered orally) three times a week from days 11 to 19 to accelerate and homogenize the development of cardiovascular calcification. On day 19, all surviving animals were sacrificed and blood and tissue samples collected. Blood was obtained via heart puncture in anesthetized animals immediately before sacrifice.
(§2) Lyophilized organs were digested using a 1:1 HNO3:HClO4 mixture in a dry bath incubator for 2–4 h at 180°C and subsequently diluted with MilliQ™ water to a final volume of 10 ml. Calcium and phosphorus contents in serum, heart and aorta were quantified via inductively coupled plasma optical emission spectrometry (ICP-OES) (Perkin-Elmer SL, Optima 5300DV spectrometer)[26].
Alkaline phosphatase (ALP) activity (ref. OSR6103), and creatinine (OSR6178) and urea (ref. OSR6134) levels were determined in serum using the Beckman Coulter assay kit (Brea, CA, USA).

[2] = Pharmacokinetics of SNF472 via 4 h i.v. infusion in adenine-induced uremic rats; format: in vivo, Wistar rats; conditions: for AUC(0→t) / Cmax: Day 13 (uremic) rats
Description: (§3) The experiment was performed based on a model described by Terai and co-workers[27]. Uremia was induced in 10 male Wistar rats weighing ± 275 g via 10 daily oral administrations of 600 mg/kg adenine (days 1–10). Two further oral doses of 300 ng/kg α-calcidol were administered on days 11 and 13.
(§4) Due to the limitations in obtaining many sequential blood samples from rats, blood samples were only acquired from each animal at three of the nine time-points. Consequently, the area under the curves (AUCs) could not be determined for individual animals and mean AUCs were therefore used to assess dose linearity.
as §1

[3] = Pharmacokinetics of SNF472 administered as an i.v. bolus; format: in vivo, Wistar rats; conditions: for C0: rat plasma phytate, extrapolated concentration at time 0
Description: Blood was collected at 5, 15, 60 and 120 min.
as §4, §1

[4] = system: vitamin D3-induced cardiovascular calcification (progression); test: Inhibition of calcification progression induced by vitamin D; format: in vivo, Sprague Dawley rats; conditions: 10 and 60 mg/kg s.c. daily
Description: Experiments were performed with 48 male Crl:OF Sprague Dawley rats weighing ± 250 g (Charles River Laboratories International, Inc. L’Arbresle, France) divided into 6 groups. Calcification was induced by 3 consecutive daily s.c. administrations of 100 kIU/kg vitamin D3 (Fort Dodge, Girona, Spain). Four groups were used as controls to evaluate calcification progression throughout the 14 days of study. The animals received daily s.c. injections of vehicle (NaCl 0.9%), starting 5 days after calcification induction. […] Group 1 animals were sacrificed on day 5 to evaluate calcification. Groups 2 and 3 were sacrificed on days 9 and 12, respectively, to follow the progression of calcification in control animals. Groups 4, 5 and 6 were sacrificed on day 14. Blood was obtained via heart puncture in anesthetized animals immediately before sacrifice.
as §2, with “Aorta and heart were removed at sacrifice, lyophilized for 24 h and weighed. Lyophilized” for “Lyophilized”

[5] = Pharmacokinetics of SNF472 via 4 h i.v. infusion in control rats; format: in vivo, Wistar rats; conditions: for AUC(0→t) / Cmax: Day 1 (control) rats
Description: as §3, §4, §1

[6] = Pharmacokinetics of SNF472 administered as a s.c. bolus; format: in vivo, Wistar rats; conditions: rat
Description: as §4, §1

[7] = system: vitamin D3-induced cardiovascular calcification; test: Prevention of calcification induced by vitamin D; format: in vivo, Sprague Dawley rats
Description: Experiments were performed with 20 male Crl:OF Sprague Dawley rats weighing ± 350 g (Charles River Laboratories International, Inc. L’Arbresle, France). Animals were divided into four groups. […] Calcification was induced by 5 consecutive daily oral administrations of 75 kIU/kg vitamin D3 (Fort Dodge, Girona, Spain), starting on day 3 of treatment. Five sham-treated animals with no calcification induction served as controls. Rats were sacrificed 14 days after induction of calcification, and organs collected. Blood was obtained via heart puncture in anesthetized animals immediately before sacrifice.
as §2, with “Aorta and heart were removed at sacrifice, lyophilized for 24 h and weighed. Lyophilized” for “Lyophilized”

[8] = 50 mg/kg 4 h i.v. infusion daily, uremic rats
[9] = 4 h i.v. infusion 10 mg/kg, uremic rats
[10] = single i.v. bolus 10 mg/kg, rat
[11] = 1 mg/kg i.v. every other day (e.o.d.)

Compound: O=P([O-])(O)OC1C(OP(=O)([O-])O)C(OP(=O)([O-])O)C(OP(=O)([O-])O)C(OP(=O)([O-])O)C1OP(=O)([O-])O.[Na+].[Na+].[Na+].[Na+].[Na+].[Na+] (centres unmarked) [SNF472, hexasodium salt of myo-inositol hexaphosphate]
- mortality (animals died) ([1]; 50 mg/kg 4 h i.v. infusion daily, 12 uremic rats per group, 4 died in control group): 7 animals
- inhibition of development of calcification in aorta [1, 8]: up to 80%
- mortality vs control group [1, 8]: no significant differences
- serum creatinine vs control [1, 8]: No significant differences
- serum urea vs control [1, 8]: No significant differences
- circulating (serum) phosphorus ([1]; 50 mg/kg 4 h i.v. infusion daily, uremic rats, control 17.6 mg/dL, not significant): 19.9 mg/dL
- mean serum ALP activity ([1]; 50 mg/kg 4 h i.v. infusion daily, uremic rats, control 295 U/L, not significant): 725 U/L
- median heart calcium content ([1]; 50 mg/kg 4 h i.v. infusion daily, uremic rats, control median 1.6 mg/g): 0.2 mg/g
- median aorta calcium content ([1]; 50 mg/kg 4 h i.v. infusion daily, uremic rats, control median 65.0 mg/g): 12.8 mg/g
- reduction in serum calcium levels ([1]; 50 mg/kg 4 h i.v. infusion daily, uremic rats, significant vs control): 17%
- signs of hypocalcemia (dyspnea, muscle spasms, convulsions) ([1]; 50 mg/kg 4 h i.v. infusion, uremic rats): no signs of hypocalcemia
- circulating phytate levels ([1]; non-uremic animals (day 0), end of 4 h i.v. infusion 50 mg/kg): ~ 150,000 ng/mL
- decrease in circulating phytate ([1]; uremic animals, during and after 4 h of SNF472 infusion): 90%
- AUC(0→t) ([2]; 4 h i.v. infusion 10 mg/kg): 3877 ng·h/mL
- Cmax ([2]; 4 h i.v. infusion 10 mg/kg, level at 240 min): 1877 ng/mL
- time at which low-level steady state was observed [2, 9]: 60 min
- time at which maximum levels were reached [2, 9]: ≤ 30 min
- AUC(0→t) ([2]; 4 h i.v. infusion 50 mg/kg): 51665 ng·h/mL
- Cmax ([2]; 4 h i.v. infusion 50 mg/kg): 16218 ng/mL
- AUC(0→t) ([3]; single i.v. bolus 1 mg/kg, rat): 3491 ng·h/mL
- Cl ([3]; single i.v. bolus 1 mg/kg, rat): 4.83 mL/min/kg
- MRT (0→∞) ([3]; single i.v. bolus 1 mg/kg, rat): 99 min
- C0 ([3]; single i.v. bolus 1 mg/kg): 36775 ng/mL
- AUC(0→t) ([3]; single i.v. bolus 5 mg/kg, rat): 19234 ng·h/mL
- MRT (0→∞) ([3]; single i.v. bolus 5 mg/kg, rat): 19.8 min
- C0 ([3]; single i.v. bolus 5 mg/kg): 84561 ng/mL
- AUC(0→t) [3, 10]: 38752 ng·h/mL
- MRT (0→∞) [3, 10]: 11.4 min
- C0 ([3]; single i.v. bolus 10 mg/kg): 156750 ng/mL
- serum calcium levels [4]: not significantly affected
- serum phosphorus levels on day 14 vs control [4]: No differences
- progression of cardiac calcification ([4]; started 5 days after calcification induction): completely blocked; also recorded: completely inhibited further progression
- AUC(0→t) ([5]; 4 h i.v. infusion 10 mg/kg): 16027 ng·h/mL
- Cmax ([5]; 4 h i.v. infusion 10 mg/kg, maximum at 240 min): 5548 ng/mL
- steady state during the infusion period ([5]; 4 h i.v. infusion 10 mg/kg, control rats): steady state was not achieved
- AUC(0→t) ([5]; 4 h i.v. infusion 50 mg/kg): 145212 ng·h/mL
- Cmax ([5]; 4 h i.v. infusion 50 mg/kg): 45141 ng/mL
- time at which steady state was reached ([5]; 4 h i.v. infusion 50 mg/kg, control rats): 60 min
- AUC(0→t) ([6]; single s.c. bolus 10 mg/kg): 1633 ng·h/mL
- Cl/F ([6]; single s.c. bolus 10 mg/kg): 3.67 mL/min/kg
- Cmax ([6]; single s.c. bolus 10 mg/kg): 4876 ng/mL
- MRT (0→∞) ([6]; single s.c. bolus 10 mg/kg): 28.2 min
- AUC(0→t) ([6]; single s.c. bolus 30 mg/kg): 32646 ng·h/mL
- Cl/F ([6]; single s.c. bolus 30 mg/kg): 4.5 mL/min/kg
- Cmax ([6]; single s.c. bolus 30 mg/kg): 61014 ng/mL
- MRT (0→∞) ([6]; single s.c. bolus 30 mg/kg): 28.8 min
- AUC(0→t) ([6]; single s.c. bolus 100 mg/kg): 139603 ng·h/mL
- Cl/F ([6]; single s.c. bolus 100 mg/kg): 3.5 mL/min/kg
- Cmax ([6]; single s.c. bolus 100 mg/kg): 263264 ng/mL
- MRT (0→∞) ([6]; single s.c. bolus 100 mg/kg): 29.4 min
- inhibition of aorta calcium vs vehicle ([7]; 1 mg/kg i.v. daily): 60%
- inhibition of heart calcium vs vehicle ([7]; 1 mg/kg i.v. daily): 74% and 74.4%
- serum phosphorus ([7]; 1 mg/kg i.v. daily, control 14.75 mg/dL, significantly increased): 18.96 mg/dL
- mean heart calcium content ([7]; 1 mg/kg i.v. daily, vitamin D3 75 kIU/kg p.o. x5, vehicle 3.35 mg/g): 1.06 mg/g
- mean aortic calcium content ([7]; 1 mg/kg i.v. daily, vitamin D3 75 kIU/kg p.o. x5, vehicle 91.1 mg/g): 36.8 mg/g
- serum calcium ([7]; 1 mg/kg i.v. daily, vs sham (8.72 mg/dL) and vitamin D control (10.50 mg/dL)): statistically significant higher levels than sham and control groups
- inhibition of aorta calcium vs vehicle [7, 11]: 56.2%
- inhibition of heart calcium vs vehicle [7, 11]: 70.4%
- inhibition of CVC in non-uremic rats ([7]; non-uremic rats, vitamin D3 model): 60–70%
